Consider 16 molecules from patent US12508278B2, “Lipid nanoparticle compositions and methods of formulating the same” (ModernaTX, Inc., priority 2021, dated 2025).

Structures are written as SMILES.

What all share (assay type): physicochemical
The nature of data set [1]: IG (lipid-mRNA adduct impurity) in binary mixtures of RNA and Compound III, ion pair reversed phase HPLC. Conditions: for level of IG compared to control binary mixtures: 1 mM agent; for initial rate of IG formation: 5 mM agent, Compound III binaries. The source says:
To detect and quantify the amount of IG present in LNP formulations comprising polynucleotides and lipid, a protocol was developed (FIG. 2) that included (1) extraction of the polynucleotide molecules (e.g. precipitation, liquid: liquid extraction); (2) assessment of integrity (e.g. purity, length) of the isolated polynucleotides by known methods (e.g. fragment analyzer, gel electrophoresis); and (3) analysis of the isolated polynucleotides by HPLC.
(§1) RNA was extracted from the LNP formulation by precipitation in ammonium acetate in isopropanol; resuspended in water to target a final RNA concentration of 0.1 mg/mL; and assessed by fragment analyzer capillary electrophoresis and ion pair reversed phase HPLC (performed on a Thermo DNApac RP 100×2.1 mm column at 65° C., with mobile phases containing 50 mM dibutylammonium acetate and 100 mM triethylammonium acetate in water and acetonitrile). Elution with an acetonitrile gradient provided an RNA separation primarily driven by mRNA length and sensitive to any added hydrophobic elements. Two prominent peaks were apparent on the HPLC chromatogram (FIG. 2), including a “main peak” comprising non-adduct mRNA and an “IG” peak comprising mRNA with one or more covalent modifications. The mass fraction of RNA containing at least one lipid adduct was determined by integrating the area under the curve (AUC) of all RNA peaks (including products shorter than the full-length product, the full-length product, and the hydrophobic modified RNA) and taking the late-eluting region as an area percent of the total peak area.
Compound III was dissolved in ethanol at a concentration of 4 mg/mL, and the RNA diluted in sodium acetate buffer pH 5.5; the RNA and lipids were then mixed in 25% ethanol. Samples were held at 25° C., and the RNA was periodically extracted by precipitation in isopropanol and analyzed by ion pair reversed phase (FIGS. 5 and 6A, data marked by *).

Data set [2] is described as follows: IG in binary mixtures of RNA and Compound VI, ion pair reversed phase HPLC. Conditions: control binary mixture. The procedure:
as §1
To determine if treatment with reducing agents or anti-oxidants confers reductions in the percentage of IG formed in binary mixtures of RNA and Compound VI, binary mixtures were prepared with RNA and Compound VI in which the RNA component was prepared with select reducing agents at 5 mM concentration and the percentage of IG in the resulting binary mixtures was quantified according to the protocol detailed in Example 1. The control binary mixtures of RNA and Compound VI contained IG at ˜55 percent after 1 day, ˜70 percent after 2 days, and ˜80 percent after 13 days. In contrast, treatment of binary mixtures of RNA and Compound VI with select reducing agents conferred IG at ˜45 percent after 1 day, ˜55% after 2 days, and ˜60-70% after 13 days (FIG. 17).

Data set [3] can be described thus: IG in Compound VI LNPs stored in PBS or Tris. Conditions: 20 mM Tris, 8% sucrose, pH 8 vs 1xPBS pH 7.2, stored at 5 C.
Data set [4] can be described thus: IG in Compound III LNPs buffered with PBS or Tris.

On to `O=S([O-])([O-])=S.[Na+].[Na+]` [sodium thiosulfate], for which the “level of IG compared to control binary mixtures” value in data set [1] (25 C, after 18 hours) is “reduced levels of IG”.
As for `O=S([O-])S(=O)(=O)[O-].[Na+].[Na+]` [sodium metabisulfite], the “initial rate of IG formation” value in data set [1] was “effective at eliminating the fast initial rate of IG formation”. In data set [1] (higher concentrations of agent before formulation, removed by dialysis with 20 mM Tris, t=0 h and 24 hours), the “percentage of IG” value was “reduced”.
`O=C(O)CCCC[C@@H]1CCSS1` (racemic) [lipoic acid]: in data set [1] (25 C, after 18 hours), the “level of IG compared to control binary mixtures” value is on record as “reduced levels of IG”.
On to `Clc1ccc(C(c2ccc(Cl)cc2)C(Cl)(Cl)Cl)cc1` [DDT, dichlorodiphenyltrichloroethane], for which, in data set [1] (25 C, after 18 hours), the “level of IG compared to control binary mixtures” value is recorded as “reduced levels of IG”.
On to `CCCCCCCCCN(CCCCCCCCC)CCN(CCCCCCCCC)CC(=O)N1CCN(C(=O)CN(CCCCCCCCC)CCCCCCCCC)CC1` [Compound VI], for which the “percentage of IG” value is reported as around 55% in data set [2] (after 1 day), around 70% in data set [2] (after 2 days) and around 80% in data set [2] (after 13 days). Besides, in data set [3], the “percentage of IG, Tris compared to PBS” value is “lower”.
With `CC(=O)N[C@@H](CS)C(=O)O` [N-acetyl cysteine], in data set [1] (25 C, after 18 hours), the “level of IG compared to control binary mixtures” value is on record as “reduced levels of IG”. Moreover, in data set [1], the “initial rate of IG formation” value was “effective at eliminating the fast initial rate of IG formation”.
Turning to `[BH4-].[Na+]` [sodium borohydrate], the “level of IG compared to control binary mixtures” value in data set [1] (25 C, after 18 hours) is on record as “reduced levels of IG”.
With `O[C@H](CS)[C@@H](O)CS` [DTE, dithioerythritol], the “level of IG compared to control binary mixtures” value in data set [1] (25 C, after 18 hours) is listed as “reduced levels of IG”.
For `NCCSSCCN` [cystamine], the “level of IG compared to control binary mixtures” value in data set [1] (25 C, after 18 hours) was “reduced levels of IG”.
Consider `N[C@@H](CCS)C(=O)O` [homo cysteine, homocysteine], for which the “level of IG compared to control binary mixtures” value in data set [1] (25 C, after 18 hours) is given as “reduced levels of IG”.
Regarding `CCCCCCCCCCCOC(=O)CCCCCN(CCO)CCCCCCCC(=O)OC(CCCCCCCC)CCCCCCCC` [Compound III, heptadecan-9-yl 8-((2-hydroxyethyl)(6-oxo-6-(undecyloxy)hexyl)amino)octanoate], the “IG formation over time” value in data set [1] (chromatographically purified Compound III, up to 99% purity, no detectable N-oxide) is recorded as “still formed IG over time”. The “percentage of IG” value in data set [1] (control binary mixture (Example 6), stored at 25 C, after 1 day) was around 15%; in data set [1] (control binary mixture (Example 6), stored at 25 C, after 3 days), around 35%; in data set [1] (control binary mixture (Example 6), stored at 25 C, after 7 days), around 40%; in data set [1] (control binary mixture (Example 11), 25 C, after 18 hours), around 20%; in data set [1] (control binary mixture without agent (Example 7), 25 C, after 18 hours), around 35%; in data set [1] (control binary mixture without agent (Example 7), after 13 days at 25 C), around 45%. Moreover, the “percentage of IG” value is around 10% in data set [1] (control binary mixture, Compound III not pre-treated (Example 5), after 0 days); around 40% in data set [1] (control binary mixture, Compound III not pre-treated (Example 5), after 5 days); around 45% in data set [1] (control binary mixture, Compound III not pre-treated (Example 5), after 25 days). Also, the “percentage of IG, Tris compared to PBS” value in data set [4] (100 mM Tris-HCl pH 7.4 vs 1xPBS) is on record as “lower”. Moreover, the “percentage of IG over time” value in data set [4] (buffered with Tris (100 mM Tris-HCl pH 7.4), stored at 5 C or 20 C) is “around 10%”.
`O[C@H](CS)[C@H](O)CS` [DTT, dithiothreitol]: in data set [1] (25 C, after 18 hours), the “level of IG compared to control binary mixtures” value was “reduced levels of IG”.
With `N[C@@H](CCC(=O)N[C@@H](CS)C(=O)NCC(=O)O)C(=O)O` [glutathione], the “level of IG compared to control binary mixtures” value in data set [1] (25 C, after 18 hours) is reported as “reduced levels of IG”.
As to `O=S([O-])S(=O)(=O)[O-].[K+].[K+]` [potassium metabisulfite], the “level of IG compared to control binary mixtures” value in data set [1] (25 C, after 18 hours) is listed as “reduced levels of IG”. For the same molecule, in data set [1], the “initial rate of IG formation” value is reported as “effective at eliminating the fast initial rate of IG formation”.
In the case of `O=C([O-])CS.[Na+]` [sodium thioglycolate], the “level of IG compared to control binary mixtures” value in data set [1] (25 C, after 18 hours) is given as “reduced levels of IG”.
On to `O=C(O)CCP(CCC(=O)O)CCC(=O)O` [TCEP, tris(2-carboxyethyl)phosphine], for which the “level of IG compared to control binary mixtures” value in data set [1] (25 C, after 18 hours) was “reduced levels of IG”.
